Patent US20040198788A1, “Medicinal compositions containing angiotensin II receptor antagonist” (SANKYO COMPANY, LIMITED, priority 2001, published 2004)

Test system: Watanabe heritable hyperlipidemic (WHHL) rabbits
Test: Determination of aortic lesioned area
Format: in vivo, rabbit
Conditions: olmesartan 0.5 mg/kg, compound A 20 mg/kg
Experimental: Determination of Aortic Lesioned Area Watanabe heritable hyperlipidemic (WHHL) rabbits aged 16 weeks were divided in 4 groups consisting of 12 or 13 animals each: control group (5% gum arabic solution), olmesartan (0.5 mg/kg) group, compound A (20 mg/kg) group, and combination group of olmesartan (0.5 mg/kg) and compound A (20 mg/kg). These test agents were orally administered for 24 weeks. After the 24th week, the rabbits were sacrificed and their aorta were isolated to determine the aortic lumen area and arteriosclerotic lesion area in the aortic lumen. Then the percentage of arteriosclerotic lesion area in the aortic lumen [arteriosclerotic lesion area in the aortic lumen/the aortic lumen area]×100 (%)] was calculated.

## CCCCCCCCN1CCc2c(C)c(CC(=O)O)c(C)c(NC(=O)C(C)(C)C)c21.O=S(=O)(O)O [compound A, N-(1-octyl-5-carboxymethyl-4,6-dimethylindolin-7-yl)-2,2-dimethylpropaneamide sulfate]
WHHL rabbits aged 16 weeks, oral administration for 24 weeks, control group 59.7
  lesion area in % (percentage of arteriosclerotic lesion area in the aortic lumen): 59.0%
WHHL rabbits, oral, 24 weeks
  arteriosclerotic lesion area compared with control / single-administration groups (in words): little affected
